Patent US20220362386A1, “LIQUID COMPOSITIONS COMPRISING A LEVODOPA AMINO ACID CONJUGATE AND USES THEREOF” (NeuroDerm, Ltd., priority 2019, published 2022)
Counter-ions that a name gives are not always drawn. Like-named read-outs stand apart in the source and are kept apart here. Non-standard residues stand in square brackets, D forms with d. Residues, ends and D or L forms follow the SMILES beside them. Dopa = N[C@@H](Cc1ccc(O)c(O)c1)C(=O)O

How the values were obtained:
[1] = Human blood stability test; type: in vitro ADME; set-up: key: slope of % decrease of remaining compound over time; higher = faster metabolism; conditions: slope of the percentage decrease of remaining compound; substrate 10 μM; 0-60 minutes
Method: The stability of several LDAA compounds in human blood was tested. The substrate concentration was 10 μM and the incubation time 0, 5, 15, 30 and 60 minutes.
The results are described in Table 19, wherein the results describe the Ke, i.e., the slope of the percentage decrease of the remaining amount of the compound, measured at each of the above time points, such that the higher the Ke the faster the metabolism.

[2] = In-vitro metabolism of LDAA compounds using liver microsomes; type: in vitro ADME, human; conditions: for half-life at 0.1 μM / microsomal CLint at 0.1 μM: both sexes, human, pooled human liver microsomes; for half-life at 0.1 μM: pH 7.4, 1.0E−07M, 0.1 mg/mL microsomal protein; for microsomal CLint at 0.1 μM: pH 7.4, calculated from the half-life; for microsomal CLint at 0.1 μM / % Compound Remaining 1st / % Compound Remaining 2nd / % Compound Remaining Mean: 1.0E−07M
Method: The stability of test compounds in pooled human liver microsomes was determined on 96-well plates, wherein the test compounds were quantified at five time points by HPLC-MS/MS analysis. The assay matrix included mixed gender and a pool of 50 human liver microsomes, wherein the final microsomal protein concentration was 0.1 mg/mL. The test concentration was 0.1 μM with 0.01% DMSO, 0.25% acetonitrile and 0.25% methanol.
Each test compound was pre-incubated for five minutes with pooled liver microsomes in phosphate buffer (pH 7.4) in a 37° C. shaking water-bath. The reaction was initiated by adding a nicotinamide adenine dinucleotide phosphate (NADPH)-generating system and incubating for 0, 15, 30, 45, and 60 min. The reaction was stopped by transferring the incubation mixture to acetonitrile/methanol. Samples were then mixed and centrifuged, wherein the supernatants were used for HPLC-MS/MS analysis.
In each assay the four reference compounds propranolol, imipramine, verapamil and terfenadine were tested, wherein the propranolol and the imipramine are known to be relatively stable, while the verapamil and the terfenadine are known to be readily metabolized in human liver microsomes.
All samples were analyzed by HPLC-MS/MS using selected reaction monitoring. The HPLC system consisted of a binary LC pump with autosampler, a C-18 column, and a gradient. The conditions were adjusted when necessary.
Peak areas corresponding to the test compound were recorded. The amount of each compound remaining was calculated by comparing the peak area at each time point to time zero. The half-life is calculated from the slope of the initial linear range of the logarithmic curve of compound remaining (%) vs. time, assuming first order kinetics. In addition, the intrinsic clearance (Clint) was calculated from the half-life using the following equation:
Clint(μL/min/mg protein)=0.693/(t1/2×protein concentration)
The results of the in-vitro human liver microsome metabolism tests of various LDAA compounds (10^−7M), in their TFA salt forms, are provided in FIG. 1 and in Table 17, which presents the % of the compound remaining at times 0, 15, 30, 45 and 60 minutes, two half-life measurements and the Clint, calculated as detailed above.

in vitro = conditions: human
Method: Caco-2 cells are human intestinal epithelial cells derived from a colorectal adenocarcinoma.
The assays are performed in both the apical to basolateral (A-B) and the B-A direction. The test compound is prepared at 10 μM in HBSS-HEPES (pH 7.4) with a final DMSO concentration of 1%. The working solution is centrifuged, and the supernatant is added to the donor side. The assay plate is incubated at 37° C. with gentle shaking for 60 min or 40 min for the A-B or B-A assay, respectively. For Pgp substrate assessment, the assays are run with and without 100 μM verapamil on both the A and B sides. For BCRP substrate assessment, the assays are run with and without 10 μM Ko143 on both the A and B sides. For MRP2 substrate assessment, the assays are run with and without 100 μM MK571 on both the A and B sides. Samples are aliquoted from the donor side at time zero and the end point, and from the receiver side at the end point.
Propranolol (highly permeable), labetalol (moderately permeable), ranitidine (poorly permeable), and colchicine (P-glycoprotein substrate), estrone-3-sulfate (BCRP substrate), or CDCF (MRP2 substrate) are included in each assay.
Samples are analyzed by HPLC-MS/MS using selected reaction monitoring. The HPLC system consists of a binary LC pump with an autosampler, a C-18 column, and a gradient. Conditions may be adjusted when necessary.
Fluorescein permeability is assessed in the A-B direction at pH 7.4 on both sides after the permeability assay with the test compound. The cell monolayer with a fluorescein permeability of less than 1.5×10−6 cm/s is considered intact.
The apparent permeability coefficient (Papp) of the test compound and its recovery are calculated as follows: […]
A is the surface area of the cell monolayer (0.11 cm^2). C is concentration of the test compound, expressed as peak area. D denotes donor and R is receiver. 0, mid, and end denote time zero, mid-point, and end of the incubation. Δt is the incubation time. V is the volume of the donor or receiver.
The permeability capabilities of the several LDAA compounds, in their TFA salt form, were determined using the Caco-2 B-A method.

[3] = read-out: Half-Life (minute) 1st
[4] = read-out: Half-Life (minute) 2nd
[5] = read-out: Half-Life (minute) Mean
[6] = Caco-2, pH 7.4, Percent Recovery 1st
[7] = Caco-2, pH 7.4, Percent Recovery 2nd
[8] = Caco-2, pH 7.4, Percent Recovery Mean
[9] = Caco-2, pH 7.4, Permeability 1st
[10] = Caco-2, pH 7.4, Permeability 2nd
[11] = Caco-2, pH 7.4, Permeability Mean

| SMILES | Ke [1] | half-life at 0.1 μM [2, 3] [min] | half-life at 0.1 μM [2, 4] [min] | half-life at 0.1 μM [2, 5] [min] | microsomal CLint at 0.1 μM [2] [µL/min/mg] | % Compound Remaining 1st ([2]; incubation time 0 minutes) [%] | % Compound Remaining 2nd ([2]; incubation time 0 minutes) [%] | % Compound Remaining Mean ([2]; incubation time 0 minutes) [%] | % Compound Remaining 1st ([2]; incubation time 15 minutes) | % Compound Remaining 2nd ([2]; incubation time 15 minutes) | % Compound Remaining Mean ([2]; incubation time 15 minutes) [%] | % Compound Remaining 1st ([2]; incubation time 30 minutes) | % Compound Remaining 2nd ([2]; incubation time 30 minutes) [%] | % Compound Remaining Mean ([2]; incubation time 30 minutes) [%] | % Compound Remaining 1st ([2]; incubation time 45 minutes) [%] | % Compound Remaining 2nd ([2]; incubation time 45 minutes) | % Compound Remaining Mean ([2]; incubation time 45 minutes) [%] | % Compound Remaining 1st ([2]; incubation time 60 minutes) [%] | % Compound Remaining 2nd ([2]; incubation time 60 minutes) [%] | % Compound Remaining Mean ([2]; incubation time 60 minutes) [%] | also measured |
| --- | --- | --- | --- | --- | --- | --- | --- | --- | --- | --- | --- | --- | --- | --- | --- | --- | --- | --- | --- | --- | --- |
| N[C@@H](CSC[C@H](NC(=O)[C@@H](N)Cc1ccc(O)c(O)c1)C(=O)O)C(=O)O (single isomer, unassigned; peak 2) [LD-LA2 TFA salt, Levodopa Lanthionine Peak 2 TFA Salt] | 0.0128 | 75.7 | 110 | > 60 | < 116 | 100 | 100 | 100 | 122.9% | 103.5% | 113 | 105.6% | 94.5 | 100 | 97.5 | 102% | 100 | 56.5 | 62.9 | 60 | recovery at 40 min, 10 μM (in vitro; [6]): 79%; recovery at 40 min, 10 μM (in vitro; [7]): 69%; recovery at 40 min, 10 μM (in vitro; [8]): 74%; Papp B→A at 40 min, 10 μM (in vitro; [9]): 13 ×10⁻⁶ cm/s; Papp B→A at 40 min, 10 μM (in vitro; [10]): 13.6 ×10⁻⁶ cm/s; Papp B→A at 40 min, 10 μM (in vitro; [11]): 13.3 ×10⁻⁶ cm/s |
| N[C@@H](CSC[C@@H](NC(=O)[C@@H](N)Cc1ccc(O)c(O)c1)C(=O)O)C(=O)O (single isomer, unassigned; peak 1) [LD-LA1 TFA salt, Levodopa Lanthionine Peak 1 TFA Salt] | −0.011 | 139 | 87.3 | > 60 | < 116 | 100 | 100 | 100 | {129.4% | 110.4% | 110 | {125.6% | 77.6 | 78 | 79.7 | 77.9% | 79 | 74.2 | 65.6 | 70 | recovery at 40 min, 10 μM (in vitro; [6]): 80%; recovery at 40 min, 10 μM (in vitro; [7]): 86%; recovery at 40 min, 10 μM (in vitro; [8]): 83%; Papp B→A at 40 min, 10 μM (in vitro; [9]): 0.28 ×10⁻⁶ cm/s; Papp B→A at 40 min, 10 μM (in vitro; [10]): 0.22 ×10⁻⁶ cm/s; Papp B→A at 40 min, 10 μM (in vitro; [11]): 0.3 ×10⁻⁶ cm/s |
| NCCCC[C@H](NC(=O)[C@@H](N)Cc1ccc(O)c(O)c1)C(=O)O [LD-Lys TFA salt, Levodopa Lysine TFA Salt] (H-[Dopa]-Lys-OH) | 0.0655 | 91.3 | 58.3 | > 60 | < 116 | 100 | 100 | 100 | {123.5% | 96.7% | 97 | 64.2% | 83.5 | 74 | 76.7 | {43.7} % | 77 | 59.5 | 50.4 | 55 | recovery at 40 min, 10 μM (in vitro; [6]): 79%; recovery at 40 min, 10 μM (in vitro; [7]): 86%; recovery at 40 min, 10 μM (in vitro; [8]): 82%; Papp B→A at 40 min, 10 μM (in vitro; [9]): 0.03 ×10⁻⁶ cm/s; Papp B→A at 40 min, 10 μM (in vitro; [10]): 0.03 ×10⁻⁶ cm/s; Papp B→A at 40 min, 10 μM (in vitro; [11]): < 0.03 ×10⁻⁶ cm/s |
| N[C@@H](Cc1ccc(O)c(O)c1)C(=O)N[C@@H](Cc1ccc(O)cc1)C(=O)O [LD-Tyr TFA salt, Levodopa Tyrosine TFA Salt] (H-[Dopa]-Tyr-OH) | 0.0426 | 112 | 315 | > 60 | < 116 | 100 | 100 | 100 | 90.7% | {121.6% | 91 | 102.5% | 110.1 | 106 | 71.4 | 104.1% | 88 | 70.8 | 84.5 | 78 | recovery at 40 min, 10 μM (in vitro; [6]): 82%; recovery at 40 min, 10 μM (in vitro; [7]): 97%; recovery at 40 min, 10 μM (in vitro; [8]): 89%; Papp B→A at 40 min, 10 μM (in vitro; [9]): 0.01 ×10⁻⁶ cm/s; Papp B→A at 40 min, 10 μM (in vitro; [10]): 0.01 ×10⁻⁶ cm/s; Papp B→A at 40 min, 10 μM (in vitro; [11]): < 0.01 ×10⁻⁶ cm/s |
